Test: Dissolution test in physiological saline (Test Example 1, FIG. 11)
Assay type: physicochemical
Conditions: 6 mg/mL as nintedanib in 100 mL physiological saline, 20° C., stirring
Description: The pharmaceutical composition (i) or the nintedanib ethanesulfonate (obtained from LC laboratories) was added to 100 mL of physiological saline so that the amount of nintedanib would be 6 mg/mL. The resultant mixture was subjected to a dissolution test at a liquid temperature of 20° C. under stirring with a stirrer.
FIG. 11 is a graph presenting the concentrations of nintedanib in the solutions measured over time.

SMILES: COC(=O)c1ccc2c(c1)NC(=O)/C2=C(\Nc1ccc(N(C)C(=O)CN2CCN(C)CC2)cc1)c1ccccc1 [nintedanib ethanesulfonate, Nintedanib ethanesulfonate]
- course of solubility (concentration of nintedanib in solution) over time: solubility decreased over time and sedimentation of insoluble matter was observed

Reference: patent US20220110934A1, “PHARMACEUTICAL COMPOSITION” (Ricoh Company, Ltd., priority 2019, published 2022)
